Data taken from patent US12565467B2, “Compounds, compositions, and methods for the treatment of inflammatory, degenerative, and neurodegenerative diseases” (Board of Supervisors of Louisiana State University and …, priority 2015, dated 2026).

Experiments:
[1] = system: human retinal pigment epithelial (RPE) cells deficient in 15-LOX-D1; assay: Oxidative stress (OS) induced apoptosis / cell death in 15-LOX-1-deficient human RPE cells; format: cell-based
From the text: (§1) FIG. 4. (A) Cytoprotective effects of NPD1 like compounds on OS induced apoptosis. The results shown in this figure compare the cytoprotective capacities of long chain polyunsaturated fatty acids (VLC-PUFA), elovanoids ELV1 and ELV2, and neuroprotectin D1 (NPD1) in human retinal pigment epithelial (RPE) cells deficient in 15-LOX-D1 by measuring the protection of cell deaths induced by oxidative stress (OS) by these compounds. […] (B) Elovanoid precursors protect human retinal pigment epithelial cells deficient in 15-LOX-1, unlike DHA, from oxidative stress conditions.
FIG. 5. (A) Effect of PD146176 on VLC-PUFA-inhibited apoptosis induced by OS in ARPE-19 cells. […] It is evident that 32:6 and 34:6 LCAF were able to induce a substantial amount (55 and 48% respectively) of neuroprotection compared to PD 146176 (22%) when the stressed cells were treated with 5 μm of 15-LOX-D1 inhibitor. It can be concluded that since PD146176 is the inhibitor of 15-lipooxygenase enzyme, it might be protecting the stressed RPE cells by accumulating neuroprotective agents inside the cells. (B) Comparison of cytoprotective capacities of NPD1, C32:6 and C34:6 VLC-PUFA on oxidative stress-induced apoptosis in 15-LOX-1 cells. Shown here is the comparison of neuroprotection in a 15-LOX-1-deficient cell line under oxidative stress with 32:6 and 34:6 VLC-PUFA along with NPD1. 32:6 and 34:6 LCAF were able to induce neuroprotection (45% and 40% respectively), as compared to oxidative stress (90%) under this condition. (C) Concentration dependent cytoprotection by C32:6 and C34:6 VLC-PUFA in oxidative-stress induced ARPE-19 cells. A concentration (50-500 nM) kinetic of cytoprotection induced by LCAF 32:6 and 34:6 in RPE cell culture under OS was shown here. […] We decided to use 250 nM concentrations of 32:6 and 34:6 LCAF in subsequent experiments. (D) Selected images of alive and dead cells from this study (control, OS, treatment with C32:6).
as §1, with “Evidence of cytoprotection by 32.6 and 34.6 VLC-PUFA in oxidative-stress induced ARPE-19 cells as detailed in (FIG. 4): (A) Cytoprotective” for “FIG. 4. (A) Cytoprotective”, “capacities of very long chain” for “capacities of long chain”
FIG. 5—(A) Effect of PD146176 on VLC-PUFA inhibited apoptosis induced by OS in ARPE-19 cells. […] It is evident that 32:6 and 34:6 LCAF were able to induce a substantial amount (55 and 48% respectively) of neuroprotection compared to PD 146176 (22%) when the stressed cells were treated with 5 μm of 15-LOX-D1 inhibitor. It can be concluded that since PD146176 is the inhibitor of 15-lipooxygenase enzyme, it might be protecting the stressed RPE cells by accumulating neuroprotective agents inside the cells. (B) Comparison of cytoprotective capacities of NPD1, C32:6 and C34:6 VLC-PUFA on oxidative stress-induced apoptosis in 15-LOX-1 cells. Shown here is the comparison of neuroprotection in a 15-LOX-1-deficient cell line under oxidative stress with 32:6 and 34:6 VLC-PUFA along with NPD1. 32:6 and 34:6 VLC-PUFA were able to induce neuroprotection (45% and 40% respectively), as compared to oxidative stress (90%) under this condition. (C) Concentration dependent cytoprotection by C32:6 and C34:6 VLC-PUFA in oxidative-stress induced ARPE-19 cells. A concentration (50-500 nM) kinetic of cytoprotection induced by VLC-PUFA 32:6 and 34:6 in RPE cell culture under OS was shown here. […] We decided to use 250 nM concentrations of 32:6 and 34:6 VLC-PUFA in subsequent experiments. […]

Bcl2 = Bcl2 protein in RPE (LOX-D / ARPE-19) cells under oxidative stress; format: cell-based, human
From the text: FIG. 9. (A) VLC-PUFA and elovanoids ELV1 and ELV2 mediated effect on Bcl2 upregulation in ARPE-19 cells under stress. In this experiment we tested the effect of elovanoid precursors on Bcl2 upregulation along with VLC-PUFA in stressed RPE. (B) Quantification of Bcl2 upregulation by NPD1, ELV1 and ELV2 in LOX-D cells. Bcl2 is an important antiapoptotic protein of the Bcl2 family protein.
FIG. 9—(A) VLC-PUFA and elovanoids ELV1 and ELV2 mediated effect on Bcl2 upregulation in ARPE-19 cells under stress. In this experiment we tested the effect of elovaniod precursors on Blc2 upregulation along with VLC-PUFA in stressed RPE. (B) Quantification of Bcl2 upregulation by NPD1, ELV1 and ELV2 in LOX-D cells. Bcl2 is an important antiapoptotic protein of the Bcl2 family protein.

SIRT1 = SIRT1 abundance in ARPE-19 cells under oxidative stress; format: cell-based; settings: ARPE-19 / human RPE cells confronted with OS
From the text: FIG. 10. (A) Effect of NPD1 and VLC-PUFA C32:6 and C34:6 in mediating upregulation of SIRT1 in ARPE-19 cells. (B) Quantification of SIRT1 upregulation by NPD1, C32:6 and C34:6. SIRT1 (Sirtuin1) belongs to a family of highly conserved proteins linked to caloric restriction beneficial outcomes and aging by regulating energy metabolism, genomic stability and stress resistance. SIRT1 is a potential therapeutic target in several diseases including cancer, diabetes, inflammatory disorders, and neurodegenerative diseases or disorders. Elovanoids induce cell survival involving the upregulation of the Bcl2 class of survival proteins and the downregulation of pro-apoptotic Bad and Bax under oxidative stress (OS) in RPE cells. […] As a consequence, remarkable cell survival takes place. This target of elovanoids might be relevant to counteract consequences of several diseases associated with SIRT1.
FIG. 10—(A) Effect of NPD1 and VLC-PUFA C32:6 and C34:6 in mediating upregulation of SIRT1 in ARPE-19 cells. (B) Quantification of SIRT1 upregulation by NPD1, C32:6 and C34:6. SIRT1 (Sirtuin1) belongs to a family of highly conserved proteins linked to caloric restriction beneficial outcomes and aging by regulating energy metabolism, genomic stability and stress resistance. […]

CC/C=C\C[C@H](O)\C=C/C=C/C=C/[C@H](O)C/C=C\C/C=C\CCCCCCCCCCCCCCC(=O)O [ELV2, (16Z,19Z,22R,23E,25E,27Z,29S,31Z)-22,29-dihydroxytetratriaconta-16,19,23,25,27,31-hexaenoic acid]
activity against OS relative to the related VLC-PUFA (FIG. 4) ([1]; as sodium salts or methyl esters): more potent activity against OS than the related VLC-PUFA
effect on Bcl2 protein (FIG. 9) (Bcl2): potent upregulation

CC/C=C\C/C=C\C/C=C\C/C=C\C/C=C\C/C=C\CCCCCCCCCCCCCCC(=O)O [C34:6]
neuroprotection (FIG. 5B) ([1]; 15-LOX-1-deficient cell line under oxidative stress, compared to oxidative stress (90%)): 40%
protection against cell death under oxidative stress conditions (FIG. 4B) ([1]; 15-LOX-D1 cells under oxidative stress): protect against cell death
effect on SIRT1 abundance (FIG. 10) (SIRT1): mediate the upregulation of SIRT1
